Numbers after ± are expanded uncertainties.
Assays:
[1] = refractive index (Na D-line) (dimensionless); wn = mass fraction of the nth substance listed; conditions: 100 kPa, Liquid, Standard Abbe refractometry
[2] = wn = mass fraction of the nth substance listed; conditions: 100 kPa, Liquid, Vibrating tube method
[3] = refractive index (Na D-line) (dimensionless); conditions: 100 kPa, Liquid, Standard Abbe refractometry

CC(C)O [propan-2-ol] + O
Conditions | mass density, 298.15 K [kg/m3] | mass density, 308.15 K [kg/m3] | mass density, 318.15 K [kg/m3] | refractive index, 298.15 K | refractive index, 308.15 K | refractive index, 318.15 K
[1], w1 = 0.1 | – | – | – | 1.3418 ± 0.002 | 1.3372 ± 0.002 | 1.3356 ± 0.002
[1], w1 = 0.2 | – | – | – | 1.3506 ± 0.002 | 1.3475 ± 0.002 | 1.3447 ± 0.002
[1], w1 = 0.3 | – | – | – | 1.3573 ± 0.002 | 1.3559 ± 0.002 | 1.3531 ± 0.002
[1], w1 = 0.4 | – | – | – | 1.3629 ± 0.002 | 1.3623 ± 0.002 | 1.3596 ± 0.002
[1], w1 = 0.5 | – | – | – | 1.367 ± 0.002 | 1.3668 ± 0.002 | 1.3643 ± 0.002
[1], w1 = 0.6 | – | – | – | 1.3705 ± 0.002 | 1.3694 ± 0.002 | 1.3679 ± 0.002
[2], w1 = 0.1 | 979.9 ± 20 | 976.9 ± 20 | 973.7 ± 20 | – | – | –
[2], w1 = 0.2 | 966.6 ± 20 | 958.7 ± 20 | 954.8 ± 20 | – | – | –
[2], w1 = 0.3 | 946 ± 20 | 941.9 ± 20 | 934.4 ± 20 | – | – | –
[2], w1 = 0.4 | 925.7 ± 20 | 916.8 ± 20 | 911.5 ± 20 | – | – | –
[2], w1 = 0.5 | 901.7 ± 20 | 896.2 ± 20 | 887.6 ± 20 | – | – | –
[2], w1 = 0.6 | 879 ± 20 | 871.6 ± 20 | 862.4 ± 20 | – | – | –

O=P([O-])([O-])O.[K+].[K+] [dipotassium hydrogen phosphate] + O
298.15 K
Conditions | mass density, [2] [kg/m3] | refractive index, [1]
w1 = 0.02 | 1014.3 ± 20 | 1.336 ± 0.002
w1 = 0.05 | 1040.9 ± 20 | 1.3401 ± 0.002
w1 = 0.1 | 1086.7 ± 20 | 1.3478 ± 0.002
w1 = 0.15 | 1134 ± 20 | 1.3551 ± 0.002
w1 = 0.2 | 1183.1 ± 20 | 1.3626 ± 0.002
w1 = 0.25 | 1234.3 ± 20 | 1.3697 ± 0.002
w1 = 0.3 | 1287.3 ± 20 | 1.3774 ± 0.002

O=P([O-])([O-])[O-].[K+].[K+].[K+] [tripotassium phosphate] + O
Conditions | mass density, 298.15 K [kg/m3] | mass density, 308.15 K [kg/m3] | mass density, 318.15 K [kg/m3] | refractive index, 298.15 K | refractive index, 308.15 K | refractive index, 318.15 K
[1], w1 = 0.02 | – | – | – | 1.3356 ± 0.002 | 1.3346 ± 0.002 | 1.3337 ± 0.002
[1], w1 = 0.05 | – | – | – | 1.3413 ± 0.002 | 1.3402 ± 0.002 | 1.3386 ± 0.002
[1], w1 = 0.1 | – | – | – | 1.3537 ± 0.002 | 1.3512 ± 0.002 | 1.3488 ± 0.002
[1], w1 = 0.15 | – | – | – | 1.3651 ± 0.002 | 1.3632 ± 0.002 | 1.3606 ± 0.002
[1], w1 = 0.2 | – | – | – | 1.3792 ± 0.002 | 1.3768 ± 0.002 | 1.3736 ± 0.002
[1], w1 = 0.25 | – | – | – | 1.3962 ± 0.002 | 1.3928 ± 0.002 | 1.3885 ± 0.002
[1], w1 = 0.3 | – | – | – | 1.418 ± 0.002 | 1.4109 ± 0.002 | 1.4029 ± 0.002
[2], w1 = 0.02 | 1015.8 ± 20 | 1011.9 ± 20 | 1008.3 ± 20 | – | – | –
[2], w1 = 0.05 | 1048.6 ± 20 | 1045 ± 20 | 1040.4 ± 20 | – | – | –
[2], w1 = 0.1 | 1106.7 ± 20 | 1102.7 ± 20 | 1100.3 ± 20 | – | – | –
[2], w1 = 0.15 | 1176.8 ± 20 | 1172.6 ± 20 | 1171.1 ± 20 | – | – | –
[2], w1 = 0.2 | 1203.4 ± 20 | 1199.8 ± 20 | 1194.9 ± 20 | – | – | –
[2], w1 = 0.25 | 1226.9 ± 20 | 1223.5 ± 20 | 1218 ± 20 | – | – | –
[2], w1 = 0.3 | 1241.7 ± 20 | 1237.1 ± 20 | 1231.8 ± 20 | – | – | –

O [water]
[3]
Conditions | refractive index
298.15 K | 1.3324 ± 0.002
308.15 K | 1.3302 ± 0.002
318.15 K | 1.3298 ± 0.002
